Laboratory results from ChEMBL document CHEMBL1201862, “PubChem BioAssay data set” (2004).
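Cultured in 96-well plates, cells were exposed to test compound for 48 hours across five concentrations. GI50 is the concentration that inhibits growth by half.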 Activity calls are given as the source filed them. Rule as the data show it: active = GI50 up to about 1.1 µM and inactive = higher.

What was measured:
Assay in all cases: NCI-60 cell line screen, 48 h
MDA-N = system: MDA-N
SNB-75 = system: SNB-75
SK-OV-3 = system: SK-OV-3
HOP-62 = system: HOP-62
OVCAR-5 = system: OVCAR-5
ACHN = system: ACHN
NCI-H226 = system: NCI-H226
MCF7 = system: MCF7
U-251 = system: U-251
SN12C = system: SN12C
MDA-MB-435 = system: MDA-MB-435
MDA-MB-231 = system: MDA-MB-231
NCI-H522 = system: NCI-H522
NCI/ADR-RES = system: NCI/ADR-RES
CAKI-1 = system: CAKI-1
DU-145 = system: DU-145
SNB-19 = system: SNB-19
NCI-H23 = system: NCI-H23
K562 = system: K562
KM12 = system: KM12

Compound	GI50 (MDA-N)	GI50 (SNB-75)	GI50 (SK-OV-3)	GI50 (HOP-62)	GI50 (OVCAR-5)	GI50 (ACHN)	GI50 (NCI-H226)	GI50 (MCF7)	GI50 (U-251)	GI50 (SN12C)	GI50 (MDA-MB-435)	GI50 (MDA-MB-231)	GI50 (NCI-H522)	GI50 (NCI/ADR-RES)	GI50 (CAKI-1)	GI50 (DU-145)	GI50 (SNB-19)	GI50 (NCI-H23)	GI50 (K562)	GI50 (KM12)
Cc1cccc2c1C(=O)C(C1OC(=O)c3ccccc31)C2 (stereo not given)	> 100 µM (inactive)	> 100 µM (inactive)	> 100 µM (inactive)	> 100 µM (inactive)	> 100 µM (inactive)	> 100 µM (inactive)	> 100 µM (inactive)	> 100 µM (inactive)	61 µM (inactive)	> 100 µM (inactive)	> 100 µM (inactive)	> 100 µM (inactive)	> 100 µM (inactive)	> 100 µM (inactive)	> 100 µM (inactive)	> 100 µM (inactive)	> 100 µM (inactive)	> 100 µM (inactive)	> 100 µM (inactive)	> 100 µM (inactive)
CC1OC(OC2C[C@](O)(C(=O)CBr)Cc3c(O)c4c(c(O)c32)C(=O)c2ccccc2C4=O)C(F)C(O)C1O (stereo not given in full)	16.3 µM (inactive)	8.83 µM (inactive)	33.6 µM (inactive)	3.72 µM (inactive)	13.5 µM (inactive)	1.53 µM (inactive)	12.7 µM (inactive)	1.19 µM (inactive)	5.83 µM (inactive)	6.92 µM (inactive)	14.1 µM (inactive)	9.89 µM (inactive)	6.18 µM (inactive)	15.8 µM (inactive)	2.71 µM (inactive)	5.28 µM (inactive)	5.86 µM (inactive)	5.58 µM (inactive)	2.56 µM (inactive)	19.6 µM (inactive)
O=C(O)c1c(-c2c3ccc(=O)cc-3oc3cc(O)ccc23)cc2ccccc2c1-c1ccccc1	> 100 µM (inactive)	41.5 µM (inactive)	> 100 µM (inactive)	> 100 µM (inactive)	> 100 µM (inactive)	> 100 µM (inactive)	> 100 µM (inactive)	> 100 µM (inactive)	> 100 µM (inactive)	> 100 µM (inactive)	> 100 µM (inactive)	> 100 µM (inactive)	> 100 µM (inactive)	> 100 µM (inactive)	> 100 µM (inactive)	> 100 µM (inactive)	> 100 µM (inactive)	> 100 µM (inactive)	4.51 µM (inactive)	> 100 µM (inactive)
CCOC(=O)/C(C(=O)Nc1cccc(C(F)(F)F)c1)=C(/N)N1CCOCC1	> 100 µM (inactive)	> 100 µM (inactive)	> 100 µM (inactive)	> 100 µM (inactive)	> 100 µM (inactive)	> 100 µM (inactive)	86.9 µM (inactive)	> 100 µM (inactive)	> 100 µM (inactive)	> 100 µM (inactive)	> 100 µM (inactive)	> 100 µM (inactive)	> 100 µM (inactive)	> 100 µM (inactive)	> 100 µM (inactive)	> 100 µM (inactive)	> 100 µM (inactive)	> 100 µM (inactive)	> 100 µM (inactive)	> 100 µM (inactive)
O=C(NC(Nc1ccc(F)cc1)(C(F)(F)F)C(F)(F)F)C(C(F)(F)F)C(F)(F)F	9.84 µM (inactive)	36.5 µM (inactive)	72.1 µM (inactive)	99.1 µM (inactive)	> 96.6 µM (inactive)	1.71 µM (inactive)	50.5 µM (inactive)	16.7 µM (inactive)	57.4 µM (inactive)	50.2 µM (inactive)	1.13 µM (inactive)	52 µM (inactive)	13.2 µM (inactive)	4.46 µM (inactive)	> 54.7 µM (inactive)	9.93 µM (inactive)	48.2 µM (inactive)	18.1 µM (inactive)	0.401 µM (active)	0.908 µM (active)
CCCCCCCCCCCCCCCCCc1cccc(OCOCCOC)c1C(=O)O	19.1 µM (inactive)	15.5 µM (inactive)	14 µM (inactive)	18.8 µM (inactive)	16.8 µM (inactive)	19.1 µM (inactive)	17 µM (inactive)	21.7 µM (inactive)	20.3 µM (inactive)	22.4 µM (inactive)	19.2 µM (inactive)	19.7 µM (inactive)	14.9 µM (inactive)	14.5 µM (inactive)	19.1 µM (inactive)	17.7 µM (inactive)	21.3 µM (inactive)	15.2 µM (inactive)	30.5 µM (inactive)	17.1 µM (inactive)
N#Cc1c(-c2ccccc2)cc(-c2ccc(Cl)cc2)[nH]c1=S	34.5 µM (inactive)	37.1 µM (inactive)	27.4 µM (inactive)	50.1 µM (inactive)	62.4 µM (inactive)	21.5 µM (inactive)	25.6 µM (inactive)	23.4 µM (inactive)	21.3 µM (inactive)	39.5 µM (inactive)	14.3 µM (inactive)	23.4 µM (inactive)	27.4 µM (inactive)	39.4 µM (inactive)	51.4 µM (inactive)	53.6 µM (inactive)	32.8 µM (inactive)	4.06 µM (inactive)	34 µM (inactive)	58.5 µM (inactive)
CCN(CC)CC(O)CNc1ccc(NCC(O)CCl)c2c1C(=O)c1ccccc1C2=O (stereo not given)	5.19 µM (inactive)	11 µM (inactive)	18.9 µM (inactive)	10.9 µM (inactive)	15.1 µM (inactive)	2.97 µM (inactive)	9.95 µM (inactive)	1.56 µM (inactive)	10.8 µM (inactive)	4.95 µM (inactive)	4.45 µM (inactive)	11.1 µM (inactive)	4.47 µM (inactive)	2.45 µM (inactive)	8.67 µM (inactive)	13.4 µM (inactive)	12.2 µM (inactive)	6.67 µM (inactive)	1.27 µM (inactive)	4.15 µM (inactive)
CC(=O)n1nc(-c2nc3ccccc3nc2Cl)cc1Cl	8.36 µM (inactive)	25.8 µM (inactive)	20.5 µM (inactive)	20.3 µM (inactive)	34.7 µM (inactive)	11.6 µM (inactive)	10.3 µM (inactive)	26.9 µM (inactive)	26.3 µM (inactive)	7.78 µM (inactive)	3.94 µM (inactive)	28.8 µM (inactive)	7.78 µM (inactive)	22.3 µM (inactive)	3.34 µM (inactive)	20.6 µM (inactive)	30.5 µM (inactive)	6.24 µM (inactive)	3.61 µM (inactive)	19.4 µM (inactive)
CC(C)C(Br)CCC1=CCC(Br)(Br)C1 (stereo not given)	2.94 µM (inactive)	10.9 µM (inactive)	13.1 µM (inactive)	17 µM (inactive)	16.7 µM (inactive)	16.9 µM (inactive)	11.9 µM (inactive)	10.8 µM (inactive)	15.4 µM (inactive)	4.2 µM (inactive)	10.5 µM (inactive)	5.27 µM (inactive)	2.35 µM (inactive)	22.6 µM (inactive)	17.2 µM (inactive)	18.4 µM (inactive)	18 µM (inactive)	9.1 µM (inactive)	4.57 µM (inactive)	13.3 µM (inactive)
CN(C)c1ccccc1CN1CCCN(Cc2ccccc2N(C)C)C1c1ccncc1	10.3 µM (inactive)	17.6 µM (inactive)	16.5 µM (inactive)	15.4 µM (inactive)	14.1 µM (inactive)	24.8 µM (inactive)	21.4 µM (inactive)	15.9 µM (inactive)	23 µM (inactive)	20.4 µM (inactive)	6.28 µM (inactive)	14.7 µM (inactive)	13 µM (inactive)	24.1 µM (inactive)	16.7 µM (inactive)	16.9 µM (inactive)	12.9 µM (inactive)	18.3 µM (inactive)	7.41 µM (inactive)	19.1 µM (inactive)
CN(C)CCNC(=O)c1cccc2c(NC(CS)C(=O)O)c3ccccc3nc12 (stereo not given)	4.55 µM (inactive)	14.4 µM (inactive)	9.86 µM (inactive)	5.32 µM (inactive)	4.52 µM (inactive)	4.49 µM (inactive)	5.53 µM (inactive)	2.95 µM (inactive)	6.38 µM (inactive)	2.6 µM (inactive)	4.49 µM (inactive)	6.18 µM (inactive)	4.19 µM (inactive)	9.82 µM (inactive)	5.75 µM (inactive)	10.5 µM (inactive)	7.52 µM (inactive)	8.22 µM (inactive)	3.79 µM (inactive)	8.47 µM (inactive)
CCOC(=O)/C=C(\C(=O)OCC)n1ccc(=O)[nH]c1=O	22.6 µM (inactive)	17.1 µM (inactive)	22.4 µM (inactive)	26.9 µM (inactive)	19.7 µM (inactive)	9.35 µM (inactive)	13.3 µM (inactive)	9.2 µM (inactive)	17.4 µM (inactive)	11.8 µM (inactive)	17.4 µM (inactive)	14.3 µM (inactive)	0.684 µM (active)	26.2 µM (inactive)	1.91 µM (inactive)	31.4 µM (inactive)	52.2 µM (inactive)	16.7 µM (inactive)	4.38 µM (inactive)	17.9 µM (inactive)
COc1ccc(OC2OC(CO)C(OCc3ccccc3)C(OCc3ccccc3)C2OCc2ccccc2)cc1 (stereo not given)	76 µM (inactive)	11.3 µM (inactive)	> 100 µM (inactive)	> 100 µM (inactive)	> 100 µM (inactive)	31.6 µM (inactive)	> 100 µM (inactive)	25.9 µM (inactive)	25.7 µM (inactive)	17.5 µM (inactive)	> 100 µM (inactive)	> 100 µM (inactive)	40 µM (inactive)	61.9 µM (inactive)	> 100 µM (inactive)	> 100 µM (inactive)	> 100 µM (inactive)	14.4 µM (inactive)	6.1 µM (inactive)	72.9 µM (inactive)
